# Test results published in patent publication US12673915B2, “Precursor compound of hexahydro-beta-acid component compound, feed composition and use thereof” (WISORIG TECHNOLOGIES PTE. LIMITED, priority 2020, dated 2026).
# Legend:
# [1] = Photostability testing under illumination of 4500 Lx of ingredient and 1% premix (HPLC); format: physicochemical; settings: for Residual amount of active ingredient: 4500 Lx
# Source text: Preparation of a sample of 1% premix of an ingredient: 1 g of an ingredient was respectively weighed out and evenly mixed with 99 g of corncob meal in a mixer to give a sample of 1% premix of an ingredient for testing.
# Photostability testing: The samples of an ingredient and 1% premix thereof were respectively spread in petri dishes to form thin layers of <5 mm, and kept under an illumination of 4500 Lx. Three replications for a sample were sampled in parallel on day 5 and day 10 for HPLC analysis.
# 25.0 mg of an ingredient was accurately weighed out and dissolved in an appropriate amount of methanol by ultrasonication. The solution was then transferred to a volumetric flask and diluted to 25 mL with methanol to give a stock solution. The samples from the stock solution were diluted with methanol respectively to a concentration of 100 ppm, 500 ppm, and 1000 ppm of work solution, and then the working solutions were filtered by 0.22 μm organic membranes. Between the concentration of a sample and the response value of HPLC peak area thereof, the linearity was adjusted and detected to give a standard curve.
# 2.3: Preparation of Sample Solution 25.0 mg of an ingredient and 2.0000 g of a sample of 1% premix thereof were respectively accurately weighed out, and dissolved in 25 mL of methanol by ultrasonication for 10 minutes. The resulting solutions were filtered by organic membranes and then analyzed by HPLC. 2.4: Testing Conditions for HPLC • Column: Symmetry Cis column (Waters; 250 mm*4.6 mm, 5 μm). • Mobile phase: 0.02% phosphoric acid:methanol=5:95 (v:v). • Wavelength: 235 nm. • Temperature of the Column: 25° C. • Injection volume: 10 μL. • Flow rate: 1 mL/min. 3: Results
# [2] = system: Duroc×Landrace×Yorkshire cross-bred bacon-type piglets; assay: Effect on the production performance of hogs (14-day feeding trial); format: in vivo; settings: 14 days, piglets
# Source text: 480 67-day-old Duroc×Landrace×Yorkshire cross-bred bacon-type piglets with similar body weight, were randomly divided into 16 groups, with 3 replications per group, 10 piglets per replication and equal amounts of males and females. The pig pen and tools were sterilized before the trial. In the trial, the piglets were kept in separate regions in the same pig pen under the same feeding and management conditions, were given a free hand with the feed and the water, and were fed twice a day. The groups were known as control group (group 1) and test groups 2 to 16. The piglets of the control group were fed with basal formula feed only, while those of the test groups 2 to 16 were respectively fed with basal formula feed mixed with different additives, wherein the active ingredient of the additives was a hexahydro-β-acid compound or a prodrug of a hexahydro-β-acid compound provide herein, and the content thereof in the feed was 5 or 25 ppm as shown in Table 4.
# The trial lasted for 14 days. During the trial, each test group was not fed with other antioxidants or growth enhancers. On the 14th day, each test group was fed with no feed but water for 12 hours, and the piglets of each replication as one unit were weighed to calculate the average daily feed intake (ADFI, g/d per piglet), the average daily weight gain (ADG, g/d per piglet), and the feed conversion ratio (FCR). Average daily feed intake=(Total weight of provided feed−Weight of residual feed)/(Days of the trial×Number of piglets in each replicate) Average daily weight gain=(final average body weight−initial average body weight)/Days of the trial Feed conversion ratio=average daily feed intake/average daily weight gain
# [3] = system: yellow broilers; assay: Effect on the production performance of broilers (30-day feeding trial); format: in vivo; settings: for ADFI (average daily feed intake) / ADG (average daily weight gain) / FCR (feed conversion ratio): 30 days, broilers; for effects on the production performance of broilers compared with hexahydro-colupulone (in words): in vivo
# Source text: Single-factor was used to conduct the trial. 540 1-day-old yellow broilers with a similar average body weight of 50 g were randomly divided into 6 groups, with 6 replicates per group, equal amount of males and females and 15 yellow broilers per replicate. The chicken house and tools were sterilized before the trial. During the trial, the broilers were kept in separate regions in the same chicken house under the same feeding and management conditions. During the trial, each test group was fed with basal formula feed consisting of corn and soybean and not fed with other antioxidants or growth enhancers. The groups were known as control group (group 1) and test groups 2 to 6, wherein the control group was fed with basal formula feed only, while the test groups 2 to 6 were fed with basal formula feeds respectively mixed with hexahydro-colupulone, hexahydro-colupulone mono-acetate, or hexahydro-colupulone mono-butyrate, as shown in Table 5.
# The trial lasted for 30 days. The broilers were given free hand with feed and water and were fed twice a day. To calculate the average daily feed intake (ADFI, g/d per broiler), the average daily weigh gain (ADG, g/d per broiler) and the feed conversion ratio (FCR), the 31 days old broilers (12 hours without feed but water) of each replication as one unit were weighed, and the amount of the feed consumed thereby was counted. Feed conversion ratio (FCR)=average daily feed intake/average daily weight gain
# [4] = 1% Premix of an ingredient (corncob meal), Day 5
# [5] = 1% Premix of an ingredient (corncob meal), Day 10
"Residual amount of active ingredient [1, 4] [%]","Residual amount of active ingredient [1, 5] [%]","Residual amount of active ingredient ([1]; Ingredient, Day 5) [%]","Residual amount of active ingredient ([1]; Ingredient, Day 10) [%]","change of active ingredient ([1]; active ingredient of 1% premix, photostability testing, day 10)",SMILES,ADFI (average daily feed intake) ([2]; 5 ppm in feed) [g/d per piglet],ADG (average daily weight gain) ([2]; 5 ppm in feed) [g/d per piglet],FCR (feed conversion ratio) ([2]; 5 ppm in feed),ADFI (average daily feed intake) ([2]; 25 ppm in feed) [g/d per piglet],ADG (average daily weight gain) ([2]; 25 ppm in feed) [g/d per piglet],FCR (feed conversion ratio) ([2]; 25 ppm in feed),ADFI (average daily feed intake) ([3]; 2 ppm in feed) [g/d per broiler],ADG (average daily weight gain) ([3]; 2 ppm in feed) [g/d per broiler],FCR (feed conversion ratio) ([3]; 2 ppm in feed),ADFI (average daily feed intake) ([3]; 20 ppm in feed) [g/d per broiler],ADG (average daily weight gain) ([3]; 20 ppm in feed) [g/d per broiler],FCR (feed conversion ratio) ([3]; 20 ppm in feed),effects on the production performance of broilers compared with hexahydro-colupulone (in words) [3]
99.28,98.82,98.97,98.31,–,"CC(=O)OC1=C(CCC(C)C)C(=O)C(CCC(C)C)(CCC(C)C)C(O)=C1C(=O)C(C)C [hexahydro-colupulone mono-acetate, Hexahydro-Colupulone Mono-Acetate]",860,368,2.340,960,435,2.208,49.13,25.67,2.02,50.06,27.36,1.95,equivalent
99.14,98.08,99.99,99.10,–,CCCC(=O)OC1=C(CCC(C)C)C(=O)C(CCC(C)C)(CCC(C)C)C(O)=C1C(=O)C(C)C [hexahydro-colupulone mono-butyrate],991,447,2.217,973,441,2.205,48.32,24.65,1.96,49.95,25.88,1.93,equivalent
90.11,83.62,92.71,85.66,more than 15%,"CC(C)CCC1=C(O)C(C(=O)C(C)C)=C(O)C(CCC(C)C)(CCC(C)C)C1=O [hexahydro-colupulone, reference compound]",–,–,–,894,403,2.218,–,–,–,49.68,25.19,1.97,–
